Data as given in patent US9402398B2, “Herbicidal compounds” (SYNGENTA PARTICIPATIONS AG, priority 2012, dated 2016).

How the values were obtained:
Format in all cases: in vivo
[1] = system: Alopecurus myosuroides (ALOMY); assay: Herbicidal glasshouse test, post-emergence; conditions: post-emergence (sprayed after 8 days cultivation), 1000 g/h, evaluated after 13 days
Method: (§1) Seeds of a variety of test species are sown in standard soil in pots (Alopecurus myosuroides (ALOMY), Setaria faberi (SETFA), Echinochloa crus-galli (ECHCG), Solanum nigrum (SOLNI), Amaranthus retoflexus (AMARE), Ipomoea hederacea (IPOHE)). After cultivation for one day (pre-emergence) or after 8 days cultivation (post-emergence) under controlled conditions in a glasshouse (at 24/16° C., day/night; 14 hours light; 65% humidity), the plants are sprayed with an aqueous spray solution derived from the formulation of the technical active ingredient in acetone/water (50:50) solution containing 0.5% Tween 20 (polyoxyethelyene sorbitan monolaurate, CAS RN 9005-64-5). Compounds are applied at 1000 g/h. The test plants are then grown in a glasshouse under controlled conditions in a glasshouse (at 24/16° C., day/night; 14 hours light; 65% humidity) and watered twice daily. After 13 days for pre and post-emergence, the test is evaluated for the percentage damage caused to the plant. The biological activities are shown in the following table on a five point scale (5=80-100%; 4=60-79%; 3=40-59%; 2=20-39%; 1=0-19%).

[2] = system: Amaranthus retoflexus (AMARE); assay: Herbicidal glasshouse test, post-emergence; conditions: post-emergence (sprayed after 8 days cultivation), 1000 g/h, evaluated after 13 days
Method: as §1

[3] = system: Echinochloa crus-galli (ECHCG); assay: Herbicidal glasshouse test, post-emergence; conditions: post-emergence (sprayed after 8 days cultivation), 1000 g/h, evaluated after 13 days
Method: as §1

[4] = system: Ipomoea hederacea (IPOHE); assay: Herbicidal glasshouse test, post-emergence; conditions: post-emergence (sprayed after 8 days cultivation), 1000 g/h, evaluated after 13 days
Method: as §1

[5] = system: Setaria faberi (SETFA); assay: Herbicidal glasshouse test, post-emergence; conditions: post-emergence (sprayed after 8 days cultivation), 1000 g/h, evaluated after 13 days
Method: as §1

[6] = system: Solanum nigrum (SOLNI); assay: Herbicidal glasshouse test, post-emergence; conditions: post-emergence (sprayed after 8 days cultivation), 1000 g/h, evaluated after 13 days
Method: as §1

[7] = system: Alopecurus myosuroides (ALOMY); assay: Herbicidal glasshouse test, pre-emergence; conditions: pre-emergence (sprayed after cultivation for one day), 1000 g/h, evaluated after 13 days
Method: as §1

[8] = system: Amaranthus retoflexus (AMARE); assay: Herbicidal glasshouse test, pre-emergence; conditions: pre-emergence (sprayed after cultivation for one day), 1000 g/h, evaluated after 13 days
Method: as §1

[9] = system: Echinochloa crus-galli (ECHCG); assay: Herbicidal glasshouse test, pre-emergence; conditions: pre-emergence (sprayed after cultivation for one day), 1000 g/h, evaluated after 13 days
Method: as §1

[10] = system: Ipomoea hederacea (IPOHE); assay: Herbicidal glasshouse test, pre-emergence; conditions: pre-emergence (sprayed after cultivation for one day), 1000 g/h, evaluated after 13 days
Method: as §1

[11] = system: Setaria faberi (SETFA); assay: Herbicidal glasshouse test, pre-emergence; conditions: pre-emergence (sprayed after cultivation for one day), 1000 g/h, evaluated after 13 days
Method: as §1

[12] = system: Solanum nigrum (SOLNI); assay: Herbicidal glasshouse test, pre-emergence; conditions: pre-emergence (sprayed after cultivation for one day), 1000 g/h, evaluated after 13 days
Method: as §1

Row | SMILES | percentage damage caused to the plant, five point scale, POST Application ALOMY [1] | percentage damage caused to the plant, five point scale, POST Application AMARE [2] | percentage damage caused to the plant, five point scale, POST Application ECHCG [3] | percentage damage caused to the plant, five point scale, POST Application IPOHE [4] | percentage damage caused to the plant, five point scale, POST Application SETFA [5] | percentage damage caused to the plant, five point scale, POST Application SOLNI [6] | percentage damage caused to the plant, five point scale, PRE Application ALOMY [7] | percentage damage caused to the plant, five point scale, PRE Application AMARE [8] | percentage damage caused to the plant, five point scale, PRE Application ECHCG [9] | percentage damage caused to the plant, five point scale, PRE Application IPOHE [10] | percentage damage caused to the plant, five point scale, PRE Application SETFA [11] | percentage damage caused to the plant, five point scale, PRE Application SOLNI [12]
1 | Cc1cc(C(=O)Nc2nnnn2C)c(=O)n(-c2ccc(F)c(F)c2)n1 [Compound 1.013] | 5 (5=80-100%) | 5 (5=80-100%) | 5 (5=80-100%) | 5 (5=80-100%) | 5 (5=80-100%) | 5 (5=80-100%) | 5 (5=80-100%) | 5 (5=80-100%) | 5 (5=80-100%) | 4 (4=60-79%) | 5 (5=80-100%) | 5 (5=80-100%)
2 | Cc1cc(C(=O)Nc2nnnn2C)c(=O)n(-c2ccc(Cl)cc2)n1 [Compound 1.012] | 5 (5=80-100%) | 5 (5=80-100%) | 5 (5=80-100%) | 5 (5=80-100%) | 5 (5=80-100%) | 5 (5=80-100%) | 5 (5=80-100%) | 5 (5=80-100%) | 5 (5=80-100%) | 3 (3=40-59%) | 5 (5=80-100%) | 5 (5=80-100%)
3 | COc1ccccc1-n1nc(C)cc(C(=O)Nc2nnnn2C)c1=O [Compound 1.004] | 5 (5=80-100%) | 5 (5=80-100%) | 5 (5=80-100%) | 5 (5=80-100%) | 5 (5=80-100%) | 5 (5=80-100%) | 5 (5=80-100%) | 5 (5=80-100%) | 5 (5=80-100%) | 4 (4=60-79%) | 5 (5=80-100%) | 5 (5=80-100%)
4 | Cc1cc(C(=O)Nc2nnnn2C)c(=O)n(-c2ccc(F)cc2)n1 [Compound 1.014] | 5 (5=80-100%) | 5 (5=80-100%) | 5 (5=80-100%) | 5 (5=80-100%) | 5 (5=80-100%) | 5 (5=80-100%) | 5 (5=80-100%) | 5 (5=80-100%) | 5 (5=80-100%) | 4 (4=60-79%) | 5 (5=80-100%) | 5 (5=80-100%)
5 | Cc1cc(C(=O)Nc2nnnn2C)c(=O)n(-c2ccc(F)cc2Br)n1 [Compound 1.020] | 5 (5=80-100%) | 5 (5=80-100%) | 5 (5=80-100%) | 5 (5=80-100%) | 5 (5=80-100%) | 5 (5=80-100%) | 5 (5=80-100%) | 5 (5=80-100%) | 5 (5=80-100%) | 5 (5=80-100%) | 5 (5=80-100%) | 5 (5=80-100%)
6 | Cc1cc(C(=O)Nc2nnnn2C)c(=O)n(-c2cc(Cl)ccc2C)n1 [Compound 1.019] | 5 (5=80-100%) | 5 (5=80-100%) | 5 (5=80-100%) | 5 (5=80-100%) | 5 (5=80-100%) | 5 (5=80-100%) | 5 (5=80-100%) | 5 (5=80-100%) | 5 (5=80-100%) | 5 (5=80-100%) | 5 (5=80-100%) | 5 (5=80-100%)
7 | Cc1cc(C(=O)Nc2nnnn2C)c(=O)n(-c2cccc(Br)c2)n1 [Compound 1.007] | 5 (5=80-100%) | 5 (5=80-100%) | 5 (5=80-100%) | 5 (5=80-100%) | 5 (5=80-100%) | 5 (5=80-100%) | 5 (5=80-100%) | 5 (5=80-100%) | 5 (5=80-100%) | 3 (3=40-59%) | 5 (5=80-100%) | 5 (5=80-100%)
8 | CCOc1ccc(-n2nc(C)cc(C(=O)Nc3nnnn3C)c2=O)cc1 [Compound 1.010] | 5 (5=80-100%) | 5 (5=80-100%) | 5 (5=80-100%) | 5 (5=80-100%) | 5 (5=80-100%) | 5 (5=80-100%) | 5 (5=80-100%) | 5 (5=80-100%) | 5 (5=80-100%) | 4 (4=60-79%) | 5 (5=80-100%) | 5 (5=80-100%)
